Where a name gives a salt, the structure may show the parent alone.
Columns and labels:
αSMA = αSMA intensity (fibroblast activation) in IPF patient-derived lung fibroblasts + TGFβ, dopaminergic agonist library; assay type: cell-based, human; conditions: 1 μM + TGFβ; for αSMA intensity (% of DMSO control): 72 hours
Experimental: (§1) Media was then exchanged for the indicated conditions for each experiment. […] Cells or tissue sections were incubated overnight with mouse monoclonal antibody against αSMA (Sigma-Aldrich F3777), and/or a rabbit monoclonal antibody against YAP/TAZ (Cell Signaling D24E4) diluted 1:200 in PBS with 1% BSA. Cells were then washed and exposed to flourescence-conjugated secondary antibodies (Invitrogen) diluted 1:1000 and DAPI (Thermo Fisher Scientific). Images were taken with a Cytation5 (BioTek) microscope. For scoring αSMA positive cells (FIG. 12), an observer blinded to the treatment conditions counted αSMA-positive cells using a visual threshold for bright fibrous staining; a minimum of 200 cells was counted for each condition. YAP/TAZ localization was quantified (FIGS. 6-10, 24-26, and 29-30) using Gen5 (Biotek) software. Images were taken at 4× magnification of both DAPI and YAP/TAZ staining. […] Quantification of double positive (YAP/TAZ and αSMA) cells from lung tissue sections (FIG. 17-21) was performed similarly; however separate thresholds were established for both YAP/TAZ and αSMA. A minimum of 4000 cells was quantified for each mouse.

CTGF, COL1A1, ACTA2, FN1 = assay: Profibrotic / matrix remodeling gene expression by qPCR in fibroblasts; assay type: cell-based, human; conditions: human dermal fibroblasts, 24 hours +/− 2 ng/mL TGFβ
Experimental: Genes which encode Connective tissue growth factor (CTGF), Collagen I (COL1A1), αSMA (ACTA2), and Fibronectin (FN1) are reduced by 24 hour treatment with DHX (10 μM), +/−SCH 39166 (3 μM). N=3 (****p<0.0001, ***p<0.001, *p<0.05 vs. 0.1% DMSO vehicle control)
IPF patient-derived fibroblasts cultured in media containing 0.1% FBS were stimulated for 24 hours with 2 ng/mL TGFβ and 10 μM DHX prior to RNA isolation. Genes which encode for ECM crosslinking: transglutaminase 2 (TGM2), lysyl oxidase and lysyl oxidase-like enzymes (LOX and LOXL1-4), ECM degradation: uPA (PLAU), tPa (PLAT), cathepsin K (CTSK), and matrix metalloprotease-14 (MMP14) and ECM protease inhibitors: metalloprotease inhibitor 3 (TIMP3), and plasminogen activator inhibitor 1 (SERPINE1) were measured. N=3. (****p<0.0001, ***p<0.001, **p<0.01, *p<0.05 vs. 0.1% DMSO vehicle control non-TGFβ treated), (++++p<0.0001, ++p<0.01, +p<0.05 vs. 0.10% DMSO vehicle control TGFβ treated).
For all other in vitro experiments, cells were treated as indicated prior to RNA isolation using RNeasy Plus Mini Kit (Qiagen) according to manufacturer's instructions. Isolated RNA (250 ng) was then used to synthesize cDNA using SuperScript VILO (Invitrogen). Quantitative PCR was performed using FastStart Essential DNA Green Master (Roche) and analyzed using a LightCycler 96 (Roche). Data are expressed as a fold change by ΔΔCt relative to GAPDH. For in vivo experiments, tissue was immediately frozen, and stored at −80° C. RNA isolation, cDNA synthesis, and qPCR analysis were performed as above.

YAP/TAZ [1] = assay: YAP/TAZ nuclear localization in IPF patient-derived lung fibroblasts treated with dopaminergic agonists; assay type: cell-based, human; conditions: 10 μM, 2 hours
Experimental: IPF patient-derived lung fibroblasts cells treated 2 hours prior to fixation with diverse dopaminergic agonists (10 μM). N=4 different patient samples. % nuclear localization of YAP/TAZ was determined using automated imaging software. Scale bar represents 100 μm.
as §1

D1 receptor = conditions: cited from earlier work
YAP/TAZ [2] = assay: YAP/TAZ nuclear localization in IMR-90 and other fibroblasts / mesenchymal cells (immunofluorescence); assay type: cell-based, human
Experimental: Selective agonists of dopamine receptor D1 with varying efficacy inhibit YAP/TAZ nuclear localization; this effect can be overcome by treatment with a DRD1 receptor antagonist (SCH 39166, 3 μM), (Dihydrexidine, 10 μM). IMR-90 cells treated 2 hours prior to fixation. N=4 (****p<0.0001 vs. 0.10% DMSO vehicle control). Scale bar represents 100 μm.
In each case DHX treatment (10 μM) can reverse this effect on YAP/TAZ. IMR-90 cells plated densely onto plastic cell culture plates for 24 hours in media containing 0.1% FBS, treated for 2 hours prior to fixation. N=4 (****p<0.0001 vs. 0.1% DMSO vehicle control), (++++p<0.0001 vs. the respective stimulated agonist ET-1, LPA, or 5-HT). Scale bar represents 100 μm.
Mesenchymal cells derived from lung (IMR-90 and IPF-FBs) hepatic stellate cells (HSC), human adult cardiac fibroblasts, (HACF) and human dermal fibroblasts (HDF) were plated densely (Confluent) or sparsely (Control and all remaining conditions) onto plastic cell culture plates for 24 hours in media containing 0.10% FBS, treated for 2 hours with Rho kinase inhibitor Y27632, adenylate cyclase activator forskolin and DHX. N=4, Cells that were positive for nuclear YAP/TAZ were quantified by automated image analysis.
Immunofluorescence Microscopy: Cells were plated into 96 well plates (Corning 3603) in their specific growth media and allowed to attach (8 hours). Media was then exchanged for the indicated conditions for each experiment. Cells were fixed in 3.7% formalin (Sigma-Aldrich), permeabilized in 0.25% Triton X-100 (Sigma-Aldrich) and then blocked with 1% BSA for 1 h. Cells or tissue sections were incubated overnight with mouse monoclonal antibody against αSMA (Sigma-Aldrich F3777), and/or a rabbit monoclonal antibody against YAP/TAZ (Cell Signaling D24E4) diluted 1:200 in PBS with 1% BSA. Cells were then washed and exposed to flourescence-conjugated secondary antibodies (Invitrogen) diluted 1:1000 and DAPI (Thermo Fisher Scientific). Images were taken with a Cytation5 (BioTek) microscope. For scoring αSMA positive cells (FIG. 12), an observer blinded to the treatment conditions counted αSMA-positive cells using a visual threshold for bright fibrous staining; a minimum of 200 cells was counted for each condition. YAP/TAZ localization was quantified (FIGS. 6-10, 24-26, and 29-30) using Gen5 (Biotek) software. Images were taken at 4× magnification of both DAPI and YAP/TAZ staining. […] Quantification of double positive (YAP/TAZ and αSMA) cells from lung tissue sections (FIG. 17-21) was performed similarly; however separate thresholds were established for both YAP/TAZ and αSMA. A minimum of 4000 cells was quantified for each mouse.

Compound	αSMA intensity (% of DMSO control) (αSMA; IPF-1 patient fibroblasts)	αSMA intensity (% of DMSO control) (αSMA; IPF-2 patient fibroblasts)	αSMA intensity (% of DMSO control) (αSMA; IPF-3 patient fibroblasts)	αSMA intensity (% of DMSO control) (αSMA; IPF-4 patient fibroblasts)	profibrotic gene expression in human dermal fibroblasts (CTGF, COL1A1, ACTA2, FN1)	Nuclear localization (% of total cells) (YAP/TAZ [1]; IPF-1 patient fibroblasts)	Nuclear localization (% of total cells) (YAP/TAZ [1]; IPF-2 patient fibroblasts)	Nuclear localization (% of total cells) (YAP/TAZ [1]; IPF-3 patient fibroblasts)	Nuclear localization (% of total cells) (YAP/TAZ [1]; IPF-4 patient fibroblasts)	efficacy at elevating cAMP (D1 receptor) (D1 receptor)	potency of inhibition of YAP/TAZ nuclear localization, normal vs IPF lung fibroblasts (YAP/TAZ [2]; normal lung fibroblasts vs those from a patient with IPF)	activity at 1 µM (αSMA; Homo sapiens, SMA, 72 h, IPF-3 patient fibroblasts, read-out: αSMA intensity (% of DMSO control))	YAP/TAZ nuclear localization (YAP/TAZ [2]; fibroblasts / mesenchymal cells on plastic, 2 hours)
Cl.NC[C@@H]1O[C@H](c2ccccc2)Cc2c1ccc(O)c2O [A 68930•HCl, A 68930]	12.4 % of DMSO control	8.111 % of DMSO control	3.245 % of DMSO control	7.35 % of DMSO control	blocks profibrotic gene expression	33.13 % of total cells	30.59 % of total cells	26.82 % of total cells	10.26 % of total cells	lacks full efficacy to elevate cAMP	–	–	–
Cc1cccc(C(=O)NCN2CCN(c3ccccc3C#N)CC2)c1.O=C(O)/C=C\C(=O)O [PD 168077 maleate, PD 168077]	75.27 % of DMSO control	56.15 % of DMSO control	75.77 % of DMSO control	66.5 % of DMSO control	–	67.08 % of total cells	42.44 % of total cells	63.68 % of total cells	68.4 % of total cells	–	–	–	–
CCCCC[C@H](O)/C=C/[C@H]1[C@H](O)CC(=O)[C@@H]1C/C=C\CCCC(=O)O [PGE2, prostaglandin E2]	–	–	–	–	–	–	–	–	–	–	reduced potency	–	–
Br.C=CCN1CCc2c(cc(O)c(O)c2Br)[C@@H](c2ccccc2)C1 [R(+)-6-BROMO-APB•HBr, R(+)-6-BROMO-APB]	11.25 % of DMSO control	2.507 % of DMSO control	0.8506 % of DMSO control	22.82 % of DMSO control	–	28.37 % of total cells	38 % of total cells	36 % of total cells	25.65 % of total cells	–	–	–	–
Br.CCCN1CCc2cc(O)cc3c2[C@H]1Cc1ccc(O)c(O)c1-3 [R(−)-2,10,11-Trihydroxy-N-propyl-noraporphine]	4.895 % of DMSO control	8.436 % of DMSO control	2.988 % of DMSO control	25.61 % of DMSO control	–	32.87 % of total cells	35.25 % of total cells	37.7 % of total cells	25.36 % of total cells	–	–	–	–
COc1ccc2c(c1O)-c1cc(O)cc3c1[C@@H](C2)N(C)CC3.Cl [R(−)-2,11-dihydroxy-10-methoxyapomorphine]	91.84 % of DMSO control	92.8 % of DMSO control	81.85 % of DMSO control	85.61 % of DMSO control	–	85.18 % of total cells	74.67 % of total cells	80.73 % of total cells	80.45 % of total cells	–	–	–	–
CCCN(CCC)CCc1cccc2c1CC(=O)N2 [Ropinirole HCl, Ropinirole]	–	–	–	–	–	69.6036 % of total cells	58.68 % of total cells	64.66 % of total cells	65.7 % of total cells	–	–	79%	–
Oc1cc2c(c(Cl)c1O)CCNCC2c1ccccc1 (stereo not shown) [SKF-81297]	–	–	–	–	–	–	–	–	–	–	–	–	reduced nuclear localization of YAP/TAZ
Oc1ccc2c(c1O)Cc1cccc3c1[C@H]2CNC3 [dinapsoline]	–	–	–	–	–	–	–	–	–	full magnitude cAMP response	–	–	–
Oc1ccc2c(c1O)Oc1cccc3c1C2CNC3 (stereo not shown) [dinoxyline]	–	–	–	–	–	–	–	–	–	full magnitude cAMP response	–	–	–
R(−)-2,10,11-Trihydroxyaporphine [R(−)-2,10,11-Trihydroxyaporphine•HBr]	2.888 % of DMSO control	1.698 % of DMSO control	7.646 % of DMSO control	15.9942 % of DMSO control	–	13.71 % of total cells	22.15 % of total cells	24.15 % of total cells	17.75 % of total cells	–	–	–	–
R(−)-Propylnorapomorphine [R(−)-Propylnorapomorphine•HCl]	5.081 % of DMSO control	1.879 % of DMSO control	5.561 % of DMSO control	19.96 % of DMSO control	–	28.35 % of total cells	26.71 % of total cells	42.74 % of total cells	29.03 % of total cells	–	–	–	–

Source: patent US12264163B2, “Compounds and methods for treating fibrotic pathologies” (Mayo Foundation for Medical Education and Research, priority 2019, dated 2025)
